According to PubChem BioAssay AID1259407 (Chemical Carcinogenesis Research Information System (CCRIS), 2018):
Active and inactive are the calls of the source. How the calls were made is not given here.

System: CCRIS mutagenicity, Ames/micronucleus/aberration tests
Assay: CCRIS mutagenicity studies

`CN(C)P(=O)(N(C)C)N(C)C` was tested, and the mutagenic call (Test System: AMES SALMONELLA TYPHIMURIUM, Strain/Indicator: TA97, Metabolic Activation: HAMSTER LIVER S-9, AROCLOR 1254 (10 OR 30%), Method: PREINCUBATION) was “inactive; negative”, the mutagenic call (Test System: AMES SALMONELLA TYPHIMURIUM, Strain/Indicator: TA97, Metabolic Activation: NONE, Method: PREINCUBATION) was “inactive; negative” and the mutagenic call (Test System: AMES SALMONELLA TYPHIMURIUM, Strain/Indicator: TA97, Metabolic Activation: NONE, Method: STANDARD PLATE) was “inactive; negative”. The mutagenic call (Test System: AMES SALMONELLA TYPHIMURIUM, Strain/Indicator: TA97, Metabolic Activation: RAT LIVER S-9, AROCLOR 1254 (10 OR 30%), Method: PREINCUBATION) was “inactive; negative”, the mutagenic call (Test System: AMES SALMONELLA TYPHIMURIUM, Strain/Indicator: TA97, Metabolic Activation: RAT, LIVER, S-9, AROCLOR 1254, Method: STANDARD PLATE) was “inactive; negative” and the mutagenic call (Test System: AMES SALMONELLA TYPHIMURIUM, Strain/Indicator: TA97, Metabolic Activation: RAT, LIVER, S-9, AROCLOR 1254, Method: SUSPENSION) was “active; positive”. The mutagenic call (Test System: AMES SALMONELLA TYPHIMURIUM, Strain/Indicator: TA97, Metabolic Activation: S-9, Method: STANDARD PLATE) was “inactive; negative”, the mutagenic call (Test System: AMES SALMONELLA TYPHIMURIUM, Strain/Indicator: TA98, Metabolic Activation: HAMSTER LIVER S-9, AROCLOR 1254 (10 OR 30%), Method: PREINCUBATION) was “inactive; negative” and the mutagenic call (Test System: AMES SALMONELLA TYPHIMURIUM, Strain/Indicator: TA98, Metabolic Activation: NONE, Method: PREINCUBATION) was “inactive; negative”. The mutagenic call (Test System: AMES SALMONELLA TYPHIMURIUM, Strain/Indicator: TA98, Metabolic Activation: NONE, Method: STANDARD PLATE) was “inactive; negative”, the mutagenic call (Test System: AMES SALMONELLA TYPHIMURIUM, Strain/Indicator: TA98, Metabolic Activation: RAT LIVER S-9, AROCLOR 1254 (10 OR 30%), Method: PREINCUBATION) was “inactive; negative” and the mutagenic call (Test System: AMES SALMONELLA TYPHIMURIUM, Strain/Indicator: TA98, Metabolic Activation: RAT, LIVER, S-9, AROCLOR 1254, Method: STANDARD PLATE) was “inactive; negative”. The mutagenic call (Test System: AMES SALMONELLA TYPHIMURIUM, Strain/Indicator: TA98, Metabolic Activation: RAT, LIVER, S-9, AROCLOR 1254, Method: SUSPENSION) was “active; positive”, the mutagenic call (Test System: AMES SALMONELLA TYPHIMURIUM, Strain/Indicator: TA98, Metabolic Activation: S-9, Method: STANDARD PLATE) was “inactive; negative” and the mutagenic call (Test System: AMES SALMONELLA TYPHIMURIUM, Strain/Indicator: TA100, Metabolic Activation: HAMSTER LIVER S-9, AROCLOR 1254 (10 OR 30%), Method: PREINCUBATION) was “inactive; negative”. The mutagenic call (Test System: AMES SALMONELLA TYPHIMURIUM, Strain/Indicator: TA100, Metabolic Activation: NONE, Method: PREINCUBATION) was “inactive; negative”, the mutagenic call (Test System: AMES SALMONELLA TYPHIMURIUM, Strain/Indicator: TA100, Metabolic Activation: NONE, Method: STANDARD PLATE) was “inactive; negative” and the mutagenic call (Test System: AMES SALMONELLA TYPHIMURIUM, Strain/Indicator: TA100, Metabolic Activation: NONE, Method: SUSPENSION) was “inactive; negative”. For the same molecule, the mutagenic call (Test System: AMES SALMONELLA TYPHIMURIUM, Strain/Indicator: TA100, Metabolic Activation: RAT LIVER S-9, AROCLOR 1254 (10 OR 30%), Method: PREINCUBATION) was “inactive; negative”, the mutagenic call (Test System: AMES SALMONELLA TYPHIMURIUM, Strain/Indicator: TA100, Metabolic Activation: RAT, LIVER, S-9, AROCLOR 1254 (4, 10 OR 30%), Method: PREINCUBATION) was “inactive; negative” and the mutagenic call (Test System: AMES SALMONELLA TYPHIMURIUM, Strain/Indicator: TA100, Metabolic Activation: RAT, LIVER, S-9, AROCLOR 1254 (10%), Method: STANDARD PLATE) was “inactive; negative”. The mutagenic call (Test System: AMES SALMONELLA TYPHIMURIUM, Strain/Indicator: TA100, Metabolic Activation: RAT, LIVER, S-9, AROCLOR 1254, Method: PREINCUBATION) was “inactive; negative”, the mutagenic call (Test System: AMES SALMONELLA TYPHIMURIUM, Strain/Indicator: TA100, Metabolic Activation: RAT, LIVER, S-9, AROCLOR 1254, Method: STANDARD PLATE) was “inactive; negative” and the mutagenic call (Test System: AMES SALMONELLA TYPHIMURIUM, Strain/Indicator: TA100, Metabolic Activation: RAT, LIVER, S-9, AROCLOR 1254, Method: SUSPENSION) was “active; positive”. For the same molecule, the mutagenic call (Test System: AMES SALMONELLA TYPHIMURIUM, Strain/Indicator: TA100, Metabolic Activation: S-9, Method: STANDARD PLATE) was “inactive; negative”, the mutagenic call (Test System: AMES SALMONELLA TYPHIMURIUM, Strain/Indicator: TA102, Metabolic Activation: NONE, Method: STANDARD PLATE) was “inactive; negative” and the mutagenic call (Test System: AMES SALMONELLA TYPHIMURIUM, Strain/Indicator: TA102, Metabolic Activation: S-9, Method: STANDARD PLATE) was “inactive; negative”. For the same molecule, the mutagenic call (Test System: AMES SALMONELLA TYPHIMURIUM, Strain/Indicator: TA1535, Metabolic Activation: HAMSTER LIVER S-9, AROCLOR 1254 (10 OR 30%), Method: PREINCUBATION) was “inactive; negative”, the mutagenic call (Test System: AMES SALMONELLA TYPHIMURIUM, Strain/Indicator: TA1535, Metabolic Activation: NONE, Method: PREINCUBATION) was “inactive; negative” and the mutagenic call (Test System: AMES SALMONELLA TYPHIMURIUM, Strain/Indicator: TA1535, Metabolic Activation: NONE, Method: STANDARD PLATE) was “inactive; negative”. The mutagenic call (Test System: AMES SALMONELLA TYPHIMURIUM, Strain/Indicator: TA1535, Metabolic Activation: RAT LIVER S-9, AROCLOR 1254 (10 OR 30%), Method: PREINCUBATION) was “inactive; negative”, the mutagenic call (Test System: AMES SALMONELLA TYPHIMURIUM, Strain/Indicator: TA1535, Metabolic Activation: RAT, LIVER, S-9, AROCLOR 1254, Method: STANDARD PLATE) was “inactive; negative” and the mutagenic call (Test System: AMES SALMONELLA TYPHIMURIUM, Strain/Indicator: TA1537, Metabolic Activation: NONE, Method: STANDARD PLATE) was “inactive; negative”. For the same molecule, the mutagenic call (Test System: AMES SALMONELLA TYPHIMURIUM, Strain/Indicator: TA1537, Metabolic Activation: RAT, LIVER, S-9, AROCLOR 1254, Method: STANDARD PLATE) was “inactive; negative”, the mutagenic call (Test System: AMES SALMONELLA TYPHIMURIUM, Strain/Indicator: TA1537, Metabolic Activation: RAT, LIVER, S-9, AROCLOR 1254, Method: SUSPENSION) was “active; positive” and the mutagenic call (Test System: AMES SALMONELLA TYPHIMURIUM, Strain/Indicator: TA1538, Metabolic Activation: NONE, Method: STANDARD PLATE) was “inactive; negative”. The mutagenic call (Test System: AMES SALMONELLA TYPHIMURIUM, Strain/Indicator: TA1538, Metabolic Activation: RAT, LIVER, S-9, AROCLOR 1254, Method: STANDARD PLATE) was “inactive; negative”, the mutagenic call (Test System: CHINESE HAMSTER OVARY, Strain/Indicator: CHO/6-THIOGUANINE, Metabolic Activation: HAMSTER EMBRYO CELL-MEDIATED) was “inactive; negative” and the mutagenic call (Test System: CHINESE HAMSTER OVARY, Strain/Indicator: CHO/6-THIOGUANINE, Metabolic Activation: NONE) was “inactive; negative”. The mutagenic call (Test System: CHINESE HAMSTER OVARY, Strain/Indicator: CHO/OUABAIN, Metabolic Activation: HAMSTER EMBRYO CELL-MEDIATED) was “inactive; negative”, the mutagenic call (Test System: CHINESE HAMSTER OVARY, Strain/Indicator: CHO/OUABAIN, Metabolic Activation: NONE) was “inactive; negative” and the mutagenic call (Test System: CHINESE HAMSTER V-79, Strain/Indicator: V-79 (HGPRT)/6-THIOGUANINE, Metabolic Activation: NONE) was “inactive; negative”. The mutagenic call (Test System: CHINESE HAMSTER V-79, Strain/Indicator: V-79 (HGPRT)/6-THIOGUANINE, Metabolic Activation: RAT, LIVER, S-9, PHENOBARBITAL AND BETA-NAPHTHOFLAVONE) was “inactive; negative”, the mutagenic call (Test System: CHINESE HAMSTER V-79, Strain/Indicator: V-79/6-THIOGUANINE, Metabolic Activation: NONE, Method: REPLATING) was “active; positive” and the mutagenic call (Test System: CHINESE HAMSTER V-79, Strain/Indicator: V-79/OUABAIN, Metabolic Activation: HAMSTER EMBRYO CELL-MEDIATED) was “inactive; negative”. For the same molecule, the mutagenic call (Test System: CHINESE HAMSTER V-79, Strain/Indicator: V-79/OUABAIN, Metabolic Activation: RAT, LIVER, S-15, PHENOBARBITAL AND 5,6-BENZOFLAVONE) was “inactive; negative”, the mutagenic call (Test System: MOUSE LYMPHOMA, Strain/Indicator: L5178Y (TK+/+)/OUABAIN, Metabolic Activation: NONE, Method: SUSPENSION/PLATE) was “active; positive” and the mutagenic call (Test System: MOUSE LYMPHOMA, Strain/Indicator: L5178Y (TK+/-)/TRIFLUOROTHYMIDINE, Metabolic Activation: RAT LIVER S-9, AROCLOR 1254, Method: SUSPENSION/PLATE) was “inactive; negative”. The mutagenic call (Test System: MOUSE LYMPHOMA, Strain/Indicator: L5178Y (TK+/-)/TRIFLUROTHYMIDINE, Metabolic Activation: NONE, Method: SUSPENSION/PLATE) was “active; positive”, the mutagenic call (Test System: MOUSE LYMPHOMA, Strain/Indicator: L5178Y (TK+/TK-), Metabolic Activation: NONE, Method: MICROWELL) was “active; positive” and the mutagenic call (Test System: MOUSE LYMPHOMA, Strain/Indicator: L5178Y (TK+/TK-), Metabolic Activation: RAT, LIVER, S-9, AROCLOR 1254, Method: SUSPENSION/PLATE) was “inactive; negative”. For the same molecule, the mutagenic call (Test System: MOUSE LYMPHOMA, Strain/Indicator: L5178Y (TK+/TK-), Metabolic Activation: RAT, LIVER, S-9, Method: SUSPENSION/PLATE) was “inactive; negative”, the mutagenic call (Test System: MOUSE LYMPHOMA, Strain/Indicator: L5178Y (TK+/TK-), Metabolic Activation: S-9, Method: MICROWELL) was “active; positive” and the mutagenic call (Test System: UDS RAT HEPATOCYTES, Strain/Indicator: THY INCORP, Metabolic Activation: NONE, Method: LIQUID SCINTILLATION COUNTING) was “active; positive”.
